For one assay, the target named is T1, Tec kinase (Homo sapiens, UniProt P42680).
T1 sequence (P42680 1-631): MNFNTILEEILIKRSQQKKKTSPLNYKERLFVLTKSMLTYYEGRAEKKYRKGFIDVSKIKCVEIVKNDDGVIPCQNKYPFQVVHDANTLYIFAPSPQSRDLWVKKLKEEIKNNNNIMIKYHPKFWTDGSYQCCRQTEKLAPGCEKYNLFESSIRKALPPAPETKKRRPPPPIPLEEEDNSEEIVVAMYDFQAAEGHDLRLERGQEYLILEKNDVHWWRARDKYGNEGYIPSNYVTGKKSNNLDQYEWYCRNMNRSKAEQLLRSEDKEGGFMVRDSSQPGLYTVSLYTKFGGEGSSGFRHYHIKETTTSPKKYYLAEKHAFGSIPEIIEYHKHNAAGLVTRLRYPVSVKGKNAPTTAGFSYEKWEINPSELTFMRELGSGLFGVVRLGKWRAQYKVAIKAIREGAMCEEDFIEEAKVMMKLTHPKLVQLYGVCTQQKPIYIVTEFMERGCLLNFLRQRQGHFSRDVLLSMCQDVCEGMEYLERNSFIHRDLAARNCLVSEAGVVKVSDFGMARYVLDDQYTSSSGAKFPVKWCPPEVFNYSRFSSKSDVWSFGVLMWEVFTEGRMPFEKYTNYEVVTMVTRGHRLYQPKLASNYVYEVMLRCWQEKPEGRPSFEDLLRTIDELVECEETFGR
Put plainly: Tec Kinase Activity Assay. In kind it is biochemical. To be noted: read-out: Tec % INH, at 30 uM. The method, then: The disclosed compounds were assayed for their ability to inhibit the activity of Tec kinase. Nunc Maxisorb plates were coated with streptavidin by overnight incubation with 100 μL per well of 1 μg/mL Streptavidin in DPBS. Prior to the start of the experiment, the plates were washed with TBST (3×200 μL) and blocked for at least 1 hour by adding 150 μL of 5% BSA/TBST. The plates were washed with TBST (3×200 μL/well) and left dry immediately before the capture step.
The test articles and controls (Staurosporine and Sutent) were prepared using the following assay buffer @ 3× desired final concentration (50 mM Tris-HCl, 0.02 mg/mL BSA, 10 mM MgCl2, 0.1 mM Na3VO4, 1 mM EGTA, 75 μM ATP0.01% NP-40, 2 mM DTT in 10% glycerol/water). In a reaction plate were added rapidly 20 μL test article (or control) and 20 μL TEC 0.25 ng/4. The plate was incubated for 30 minutes. To the reaction plate was added 20 μL of Pyk-2.5 ng/μL. The plate was incubated at room temperature for two hours. From the reaction plate, 50 μL was transferred to the streptavidin coated plate. The capture plate was incubated at room temperature for 30 minutes then washed 6× with TBST. To the capture plate was added 100 μL/well of Cell Signaling anti-phospho tyrosine at a dilution of 1:3000 in 2% BSA/TBST. The plate was incubated for one hour at room temperature then washed 6× with TBST. To the capture plate was added 100 μL/well of Alkaline Phosphatase Tagged Goat anti Mouse Antibody at a dilution of 1:4000 in 2% BSA/TBST. The plate was incubated for one hour at room temperature then washed 6× with TBST. The fluorescent readout was initiated by the addition of 100 μL/well of Attophos reagent (6 mg/10 mL). The reading was done on the Perkin Elmer Envision system.

A further assay has as its target RET kinase (Homo sapiens, UniProt P07949). Put plainly: RET Kinase Activity Assay. To be noted: read-out: Ret, % INH, at 30 uM. In kind it is biochemical. The protocol:
The disclosed compounds were assayed for their ability to inhibit the activity of RET kinase. Nunc Maxwasorb plates were coated with streptavidin by overnight incubation with 100 μL per well of 1 μg/mL Streptavidin in DPBS. Prior to the start of the experiment, the plates were washed with TBST (3×200 μL) and blocked for at least 1 hour by adding 150 μL of 5% BSA/TBST. The plates were washed with TBST (3×200 […]) and left dry immediately before the capture step.
The test articles and controls (Staurosporine and Sutent) were prepared using the following assay buffer @ 3× desired final concentration (50 mM […], 0.02 mg/mL BSA, 10 mM MgCl2, 0.1 mM Na3VO4, 1 mM EGTA, 75 μM ATP0.01% NP-40, 2 mM DTT in 10% glycerol/water). In a reaction plate, were added rapidly 20 μL test article (or control) and 20 μL RET (0.25 ng/4 final concentration). The plate was incubated for 15 minutes. To the reaction plate was added 20 μL of Pyk-2 (0.25 ng/4 final concentration). The plate was incubated at room temperature for one hour.
From the reaction plate, 50 μL was transferred to the streptavidin coated plate. The capture plate was incubated at room temperature for 30 minutes then washed 6× with TBST. To the capture plate was added 100 μL/well of Cell Signaling anti-phospho tyrosine at a dilution of 1:3000 in 2% BSA/TBST. The plate was incubated for one hour at room temperature then washed 6× with TBST. To the capture plate was added 100 μL/well of Alkaline Phosphatase Tagged Goat anti Mouse Antibody at a dilution of 1:4000 in 2% BSA/TBST. The plate was incubated for one hour at room temperature then washed 6× with TBST. The fluorescent readout was initiated by the addition of 100 μL/well of Attophos reagent (6 mg/10 mL). The reading was done on the Perkin Elmer Envision system.

Sequence of RET kinase (P07949 29-1114): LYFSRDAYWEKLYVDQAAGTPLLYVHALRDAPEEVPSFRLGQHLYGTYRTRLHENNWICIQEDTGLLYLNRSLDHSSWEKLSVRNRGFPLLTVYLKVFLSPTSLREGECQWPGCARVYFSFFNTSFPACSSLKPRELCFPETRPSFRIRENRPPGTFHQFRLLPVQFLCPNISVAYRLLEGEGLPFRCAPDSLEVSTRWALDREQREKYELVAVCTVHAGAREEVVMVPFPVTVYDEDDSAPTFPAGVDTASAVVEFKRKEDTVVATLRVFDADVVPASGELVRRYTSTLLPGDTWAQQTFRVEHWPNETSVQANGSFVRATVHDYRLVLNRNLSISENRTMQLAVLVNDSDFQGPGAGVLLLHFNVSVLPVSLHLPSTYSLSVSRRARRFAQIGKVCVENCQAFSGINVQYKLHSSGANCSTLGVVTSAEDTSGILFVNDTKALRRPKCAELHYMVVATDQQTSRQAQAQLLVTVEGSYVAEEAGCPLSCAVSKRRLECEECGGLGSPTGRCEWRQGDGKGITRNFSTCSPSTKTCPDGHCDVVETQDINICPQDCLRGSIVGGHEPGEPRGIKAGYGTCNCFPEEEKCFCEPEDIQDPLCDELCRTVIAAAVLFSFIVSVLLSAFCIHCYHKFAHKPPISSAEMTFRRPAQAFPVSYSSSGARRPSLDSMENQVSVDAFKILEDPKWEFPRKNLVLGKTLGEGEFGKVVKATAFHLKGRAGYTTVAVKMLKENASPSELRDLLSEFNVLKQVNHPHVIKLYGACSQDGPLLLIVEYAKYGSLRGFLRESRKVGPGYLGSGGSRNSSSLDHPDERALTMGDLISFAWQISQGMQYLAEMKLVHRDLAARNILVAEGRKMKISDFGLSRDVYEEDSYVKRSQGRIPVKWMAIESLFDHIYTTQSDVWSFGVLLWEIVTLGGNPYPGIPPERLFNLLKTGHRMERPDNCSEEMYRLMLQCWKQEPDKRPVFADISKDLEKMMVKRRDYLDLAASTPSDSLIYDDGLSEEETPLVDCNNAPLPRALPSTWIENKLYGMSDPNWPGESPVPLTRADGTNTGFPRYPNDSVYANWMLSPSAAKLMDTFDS

Take `COc1cc2c(cc1OC)C(c1ccccc1Cl)N(c1nc(N)nc3[nH]cnc13)CC2` (stereo not shown) [Compound 48, 6-[1-(2-chlorophenyl)-6,7-dimethoxy-3,4-dihydroisoquinolin-2(1H)-yl]-9H-purin-2-amine]: the inhibition at 30 µM on Tec kinase and on RET kinase was less than 50% in each case.

In the case of `COc1cc2c(cc1OC)C(c1cccc(C(F)(F)F)c1)N(c1nc(N)nc3[nH]cnc13)CC2` (stereo not shown) [Compound 50, 6-{6,7-dimethoxy-1-[3-(trifluoromethyl)phenyl]-3,4-dihydroisoquinolin-2(1H)-yl}-9H-purin-2-amine], the inhibition at 30 µM at Tec kinase and at RET kinase was less than 50% in each case.

These data come from patent publication US8343961B2, “Substituted heterocyclic compounds” (ArQule, Inc., priority 2009, dated 2013).
